We go through 1 molecule from PMC10039358, “The 8-bromobaicalein inhibited the replication of dengue, and Zika viruses and targeted the dengue polymerase” (Scientific Reports, 2023).

Data set [1] can be described thus: Cytotoxicity (CC50), MTS assay. An excerpt: (§1) LLC/MK2 (ATCC® CCL-7), HEK-293 (ATCC® CRL-1573), HepG2 (ATCC® HB-8065), THP-1 (ATCC® TIB-202), Huh-7, RD (ATCC® CCL-136™), and C6/36 (ATCC® CRL-1660) cell lines were propagated and maintained as previously described[16],[21],[40],[53]. Reference DENV1 (16007), DENV2 (NGC, 16681), DENV3 (16562), DENV4 (1036), ZIKV (SV0127/14), and EV-A71 (BRCR) were propagated in Vero, C6/36, and R.D. cells as described[16],[21] Phumee et al.[53]. Cytotoxic concentration (CC50) of LLC/MK2, THP-1, HEK-293, HepG2, Huh-7, and R.D. cells were analyzed as previously described. […] Briefly, cells were seeded overnight and infected with each virus at the multiplicity of infection (M.O.I.) of 0.1 for 1 h. The compound was added during and after infection, and cells were incubated for 72 h. Supernatants were collected for 96-well[55] or a traditional 24-well plaque titration.
(§2) Supplementary Fig. S2. […] Briefly, cells were seeded overnight before the compound addition.

The nature of data set [2]: Cytotoxicity (CC50), MTS assay. The following applies: human.
Source text: as §1, §2
(Tetrazolium assays rely on reduction of a dye to a coloured formazan, in cell work by metabolically active cells.)

A short description of data set [3]: Cytotoxicity (CC50), MTS assay. The settings on record: human.
Source text: as §1, §2
The source holds these as a separate data set.

Another data set deals with DENV1 (16008). Put plainly: Antiviral efficacy (EC50), plaque titration. In kind it is cell-based.
Source text: as §1

For another data set, the system named is DENV2 (NGC). Put plainly: Antiviral efficacy (EC50), plaque titration. In kind it is cell-based.
Source text: as §1

The next data set has as its system DENV3 (16562). Nature of the data set: Antiviral efficacy (EC50), plaque titration. In kind it is cell-based.
Source text: as §1

In the next data set the test system is DENV4 (1036). Put plainly: Antiviral efficacy (EC50), plaque titration. The format is cell-based.
Source text: as §1

For another data set, the system named is EV-A71 (BRCR). Nature of the data set: Antiviral efficacy (EC50), plaque titration. In kind it is cell-based.
Source text: as §1

Another data set concerns ZIKV (SV0127/14). Put plainly: Antiviral efficacy (EC50), plaque titration. In kind it is cell-based.
Source text: as §1

A further data set deals with T1, DENV-2 MTase (Dengue virus type 2, UniProt P14340).
T1 construct: N-terminally Histidine-tagged DENV-2 MTase (NHis-MTase) synthesized according to previous description; His-tag (N)
Nature of the data set: MTase-Glo methyltransferase assay. The format is biochemical. The following applies: 100 µM compound. As to the method: The production of DENV2 MTase was performed according to a described protocol. In brief, N-terminally Histidine-tagged DENV-2 MTase (NHis-MTase) synthesized according to previous description[30] (GenScript; Piscataway, NJ, USA) was expressed with 100 µM IPTG (isopropyl-b-D-thiogalactopyranoside) induction, at 27 °C for 16 h. Cell disruption and clarification were sequentially done via sonication and centrifugation at 12,000 rpm for 30 min at 4 °C. His-tagged […] was purified by immobilized metal affinity chromatography (IMAC; Cytiva, Marlborough, MA, USA) with 500 mM imidazole elution. The eluate was dialyzed against 2 L of 50 mM Tris, pH 7.5, 50 mM NaCl, 1 mM MgCl2, 40% glycerol, and 1 mM DTT at 4 °C overnight. The purified enzyme was verified by Coomassie staining and methyltransferase activity.
The MTase assay for inhibition testing was adapted from the previous publications. The MTase assay for inhibition testing was performed using MTase-Glo™ Methyltransferase Assay according to the manufacturer’s protocol (Promega, Madison, Wisconsin, USA). Each reaction was performed in 50 µl reaction using the MTase from DENV-2. […] The luminescence was measured using VICTORTM X3 2030 Multilabel Reader (Perkin Elmer, Waltham, MA, USA). The percent enzyme activity was calculated from two independent experiments by using PRISM version 9 (GraphPad Software, La Jolla, CA, USA).

The next data set has as its system DENV3. Nature of the data set: Time-of-addition, viral RNA by RT-qPCR. The format is cell-based. The following applies: 10 µM added 1, 6, and 12 h after infection, LLC/MK2, M.O.I. 1. As to the method:
(§3) The protocol was adapted from a previous description. Briefly, LLC/MK2 cells (5 × 10^4) were seeded in a 24-well plate and incubated as described. Cells were infected with DENV2 NGC, unless otherwise indicated, at the M.O.I. of 0.1 before adding the compound at designated concentrations. DMSO at 1% was used as no inhibition control. Supernatants were collected to determined viral titers by plaque titration assay or RT-qPCR.
(§4) Supplementary Fig. S8. The time-of-addition of 8-bromobaicalein against DENV3-, and ZIKV-infected LLC/MK2 cells. Briefly, the 10 µM 8-bromobaicalein was added to the virus-infected cells (M.O.I. of 1) at 1, 6, 12, 24, and 48 h post-infection. Supernatants were collected at 48 h after infection for analysis by RT-qPCR. Results were reported as percent inhibition from DMSO-treated cells.

The subject of a further data set is ZIKV. Nature of the data set: Time-of-addition, viral RNA by RT-qPCR. The format is cell-based. The settings on record: 10 µM added 1, 6, and 12 h after infection, LLC/MK2, M.O.I. 1. The procedure:
as §3, §4
In general terms: Quantitative PCR measures a nucleic acid by following its amplification.

Data set [4] relates to chikungunya virus (CHIKV). Put plainly: Antiviral efficacy (EC50) against chikungunya virus. The settings on record: LLC-MK2. In kind it is cell-based.
In another data set the test system is various cell lines. Nature of the data set: Cytotoxicities in various cell lines, summary. In kind it is cell-based. The settings on record: 100 µM, most cells. As to the method:
as §2

Bounds are passed on as bounds.

T1 sequence (P14340 2493-2755): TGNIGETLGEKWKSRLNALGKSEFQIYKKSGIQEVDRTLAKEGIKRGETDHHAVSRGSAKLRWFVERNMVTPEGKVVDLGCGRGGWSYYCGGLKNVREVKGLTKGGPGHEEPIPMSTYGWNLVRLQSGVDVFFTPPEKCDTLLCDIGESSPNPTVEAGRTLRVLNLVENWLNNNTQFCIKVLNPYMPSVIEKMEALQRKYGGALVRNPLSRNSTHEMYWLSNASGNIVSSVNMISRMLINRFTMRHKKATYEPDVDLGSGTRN

As a reminder, the CC50 is the concentration at which the toxic effect on the cells reaches its halfway point. What is called EC50 is the concentration at which the effect is half-maximal. Broadly, the inhibition is how much of the control response was suppressed. Turning to `O=c1cc(-c2ccccc2)oc2c(Br)c(O)c(O)c(O)c12` [8-bromobaicalein], the 50% cytotoxic concentration (CC50) at 48 h is > 100000 nM in [1] (human), > 250000 nM in [1] (rhesus monkey), 97900 ± 7060 nM in [2] and > 100000 nM in data set [3]. Moreover, the “Selectivity index (SI)” value in the data set with DENV1 (16008) (DENV1, CC50/EC50 in LLC/MK2) is given as > 378.7879; in the data set on DENV2 (NGC) (DENV2, CC50/EC50 in LLC/MK2), > 284.0909; in the data set on DENV3 (16562) (DENV3, CC50/EC50 in LLC/MK2) it was > 312.5; in the data set with DENV4 (1036) (DENV4, CC50/EC50 in LLC/MK2) it was > 312.5; in the data set with ZIKV (SV0127/14) (ZIKV, CC50/EC50 in LLC/MK2), > 347.2222. Also, the EC50 in the data set with DENV1 (16008) (LLC-MK2, 72 h) was 660 ± 50 nM; in the data set on DENV2 (NGC) (Dengue virus, DENV2, LLC-MK2, 72 h), 880 ± 140 nM; with DENV3 (16562) (LLC-MK2, 72 h), 800 ± 80 nM; in the data set with DENV4 (1036) (LLC-MK2, 72 h) it was 800 ± 150 nM; with EV-A71 (BRCR) (Enterovirus A, EVA71, EV-A71 (BRCR), table title LLC/MK2 cells, methods R.D. cells) it was > 25000 nM; in the data set with ZIKV (SV0127/14) (Zika virus, ZIKV (SV0127/14), LLC/MK2 cells, M.O.I. 0.1, 72 h) it was 720 ± 200 nM. The molecule further had a concentration for a half-maximal effect (EC50) in data set [4] of 490 ± 110 nM. The “Inhibition of enterovirus-A71” value in the data set on EV-A71 (BRCR) (nonenveloped enterovirus-A71) is given as “did not inhibit”. Besides, on DENV-2 MTase, the inhibition at 100 µM is < 50%. Further, the “Inhibition of DENV3 RNA” value in the data set with DENV3 is “inhibited”. Further, in the data set with ZIKV, the “Inhibition of ZIKV RNA” value is given as “inhibited”. In addition, in the data set on various cell lines, the Cytotoxicity to cells entry is recorded as “not toxic”.
